Data on eleven molecules can be found in ChEMBL document CHEMBL3785091, “Discovery of AZD8165 a clinical candidate from a novel series of neutral thrombin inhibitors” (Medchemcomm, 2016).

The nature of data set [1]: Kinetic solubility of compound in HBSS-MES buffer at 5 to 10 mM at pH 6.8 by LC-UV/MS analysis. In kind it is physicochemical. As to conditions: read-out: Kinetic_solubility.
The nature of data set [2]: Bioavailability in Sprague-Dawley rat. In kind it is ADME, organism-based. As to conditions: in vivo.
Data set [3] is filed under the species Rattus norvegicus. The data set is described as follows: Toxicity in rat by irwin assay relative to control. The conditions noted are these: in vivo. In kind it is organism-based.
The species entered for data set [4] is Mus musculus. Briefly: Cardiotoxicity in mouse by electrophysiology assay relative to control. It is filed as toxicity, organism-based. The conditions noted are these: in vivo.
Data set [5] is filed under the species Cavia porcellus. Briefly: Cardiotoxicity in guinea pig by cardiac electrophysiology assay relative to control. It is filed as toxicity, organism-based, Heart. The conditions noted are these: in vivo.
The species named for data set [6] is Rattus norvegicus. Briefly: Cardiotoxicity in rat by electrophysiology assay relative to control. It is filed as toxicity, organism-based. The conditions noted are these: in vivo.
The species named for data set [7] is Rattus norvegicus. Briefly: Toxicity in rat arterial thrombosis model assessed as increase in bleeding time. In kind it is organism-based. The conditions noted are these: in vivo.
The subject of data set [8] is Rattus norvegicus. The data set is described as follows: Bioavailability in rat dosed via colon route assessed as (5S)-N-[5-Chloro-2-(1H-tetrazol-1-yl)benzyl]-1-[(2R)-2-(4-fluorophenyl)-2-hydroxyacetyl]-4,5-dihydro-1H-pyrazole-5-carboxamide level. It is filed as ADME, organism-based. As to conditions: in vivo, other.
For data set [9], the system named is Canis familiaris. The data set is described as follows: Oral bioavailability in dog assessed as (5S)-N-[5-Chloro-2-(1H-tetrazol-1-yl)benzyl]-1-[(2R)-2-(4-fluorophenyl)-2-hydroxyacetyl]-4,5-dihydro-1H-pyrazole-5-carboxamide level. In kind it is ADME, organism-based, Canis lupus familiaris. As to conditions: in vivo.
Data set [10] is described as follows: Drug excretion in dog urine assessed as compound unchanged. It is filed as ADME, tissue-based, Canis lupus familiaris. As to conditions: read-out: Drug excretion.
The nature of data set [11]: Drug metabolism in dog urine. In kind it is ADME, tissue-based, Canis lupus familiaris.
Data set [12] relates to Homo sapiens. Briefly: Toxicity in po dosed human. It is filed as organism-based. As to conditions: in vivo.
The nature of data set [13]: Drug excretion in rat bile assessed as (5S)-N-[5-Chloro-2-(1H-tetrazol-1-yl)benzyl]-1-[(2R)-2-(4-fluorophenyl)-2-hydroxyacetyl]-4,5-dihydro-1H-pyrazole-5-carboxamide level. In kind it is ADME, tissue-based. As to conditions: in vivo.
A short description of data set [14]: Drug excretion in dog bile assessed as (5S)-N-[5-Chloro-2-(1H-tetrazol-1-yl)benzyl]-1-[(2R)-2-(4-fluorophenyl)-2-hydroxyacetyl]-4,5-dihydro-1H-pyrazole-5-carboxamide level. In kind it is ADME, tissue-based, Canis lupus familiaris. The conditions noted are these: in vivo.
The nature of data set [15]: Drug excretion in human urine. It is filed as ADME, tissue-based.
Data set [16] concerns Rattus norvegicus. Briefly: Oral bioavailability in rat assessed as (5S)-N-[5-Chloro-2-(1H-tetrazol-1-yl)benzyl]-1-[(2R)-2-(4-fluorophenyl)-2-hydroxyacetyl]-4,5-dihydro-1H-pyrazole-5-carboxamide level. It is filed as ADME, organism-based. The conditions noted are these: in vivo.
The nature of data set [17]: Drug excretion in rat urine assessed as compound unchanged. It is filed as ADME, tissue-based. As to conditions: read-out: Drug excretion.
Data set [18] can be described thus: Drug metabolism in rat urine. In kind it is ADME, tissue-based.
For data set [19], the system named is Homo sapiens. The data set is described as follows: Oral bioavailability in human. As to conditions: in vivo. In kind it is ADME, organism-based.

Each structure is given as a SMILES string. Converted amounts (≈) assume the structure as drawn.

Consider `O=C(NCc1cc(Cl)ccc1-n1cnnn1)[C@@H]1C[C@@H]2C[C@@H]2N1C(=O)[C@H](O)c1ccccc1`, for which, in data set [1], the solubility kinetic was determined as 97 µM (≈ 43.9 µg/mL). Also, the bioavailability in data set [2] was 63%.

`CC(=O)O[C@@H](C(=O)N1N=CC[C@H]1C(=O)NCc1cc(Cl)ccc1-n1cnnn1)c1ccc(F)cc1`: the solubility kinetic in data set [1] is 87.5 µM (≈ 43.7 µg/mL).

Turning to `CC(C)(C)[C@@H](O)C(=O)N1C[C@@H]2C[C@@H]2[C@H]1C(=O)NCc1cc(Cl)ccc1-n1cnnn1`, in [1], the solubility kinetic turned out to be 97 µM (≈ 42 µg/mL). The molecule further displayed a bioavailability in data set [2] of 57%.

`O=C(NCc1cc(Cl)ccc1-n1cnnn1)[C@@H]1C[C@H]2C[C@H]2N1C(=O)[C@H](O)c1ccccc1`: the solubility kinetic in data set [1] is 100 µM (≈ 45.3 µg/mL). Further, the bioavailability in data set [2] is 86%.

As to `CCCC[C@@H](O)C(=O)N1N=CC[C@H]1C(=O)NCc1cc(Cl)ccc1-n1cnnn1`, the solubility kinetic in [1] stood at 59 µM (≈ 24.8 µg/mL). Moreover, the bioavailability in data set [2] worked out at 70%.

Take `CCCC(=O)O[C@@H](C(=O)N1N=CC[C@H]1C(=O)NCc1cc(Cl)ccc1-n1cnnn1)c1ccc(F)cc1`: the solubility kinetic in data set [1] is less than 1 µM.

In the case of `O=C(NCc1cc(Cl)ccc1-n1cnnn1)[C@@H]1CC=NN1C(=O)[C@H](O)c1ccccc1`, the solubility kinetic in data set [1] turned out to be 98 µM (≈ 43.1 µg/mL). This molecule displayed a bioavailability in data set [2] of 60%.

Regarding `O=C(NCc1cc(Cl)ccc1-n1cnnn1)[C@@H]1CC=NN1C(=O)[C@H](O)c1ccc(F)cc1`, the “fold change (FC)” value in data set [3] is listed as greater than 24; in data set [4], greater than 40; in [5] it was greater than 40; in data set [6] it was greater than 40; in [7], 2. The solubility kinetic in data set [1] is 95 µM (≈ 43.5 µg/mL). In data set [2], this molecule registered a bioavailability of 75%.

In the case of `CCCCC(=O)O[C@@H](C(=O)N1N=CC[C@H]1C(=O)NCc1cc(Cl)ccc1-n1cnnn1)c1ccc(F)cc1`, in [1], the solubility kinetic came out at 20.5 µM (≈ 11.1 µg/mL).

`CCC(=O)O[C@@H](C(=O)N1N=CC[C@H]1C(=O)NCc1cc(Cl)ccc1-n1cnnn1)c1ccc(F)cc1` [AZD-8165]: the F worked out at 30% in data set [8], 52% in [9] and 64% in data set [16]. The “fold change (FC)” value was greater than 24 in data set [3], greater than 40 in data set [4], greater than 40 in data set [5] and greater than 40 in data set [6]. In addition, the values for the dose excreted in data set [10] and in data set [17] were 18% and 66%, respectively. Besides, the solubility kinetic in [1] amounted to 2.5 µM (≈ 1.28 µg/mL). Also, the Drug metabolism result in [11] and in data set [18] was “metabolite_detected” each time. Besides, the MTD in data set [12] was determined as 2.5 mg. Also, the Drug excretion result in data set [13], in data set [14] and in data set [15] was “metabolite_notdetected” in each case.

`CCOC(=O)CN[C@@H](C(=O)N1CC[C@H]1C(=O)NCc1ccc(/C(N)=N\O)cc1)C1CCCCC1` [XIMELAGATRAN] had a F in data set [19] of 20%.
